Experimental data from patent publication US20240408169A1 (priority 2023, published 2024).
*1 amine or outer side, *2 acyl side, *3 side chain or, on linkers, in order; H or OH if unused. Where a SMILES comes first, the peptide text is derived from it. Bridges are numbered along the chain shown (N, C = ends). [ ]: non-standard residue; d: D form. The star is where a group is joined. NMePhe(2-(4-MorPh),5-Cl) = CN[C@@H](Cc1cc(Cl)ccc1-c1ccc(N2CCOCC2)cc1)C(=O)O; X157 = CN([C@@H](Cc1cc(Cl)ccc1-c1ccc(S(=O)(=O)N2CCOCC2)cc1)C(=O)[*:2])[*:1]; X121 = C[C@@H]1CN(c2ccc(-c3ccc(Cl)cc3C[C@@H](C(=O)[*:2])N(C)[*:1])cc2)CCO1; X202 = CN([C@@H](Cc1cc(Cl)ccc1-c1ccc(N2CCN(CC(F)F)CC2)cc1)C(=O)[*:2])[*:1]; X198 = COC[C@H]1COCCN1c1ccc(-c2ccc(Cl)cc2C[C@@H](C(=O)[*:2])N(C)[*:1])cc1; X169 = CN([C@@H](Cc1cc(Cl)ccc1-c1ccc(-c2cnn3c2COCC3)cc1)C(=O)[*:2])[*:1]; X185 = CN([C@@H](Cc1cc(Cl)ccc1-c1ccc(N2CCOC(C)(C)C2)cc1)C(=O)[*:2])[*:1]; X179 = CN([C@@H](Cc1cc(Cl)ccc1-c1ccc(N2CCOCC2)c(C#N)c1)C(=O)[*:2])[*:1]; X144 = CN([C@@H](Cc1cc(Cl)ccc1-c1ccc(N2CC(C)(F)C2)nc1)C(=O)[*:2])[*:1]; X191 = CN([C@@H](Cc1cc(Cl)ccc1-c1ccc(N2CCOCC2)c(F)c1F)C(=O)[*:2])[*:1]; X212 = CN1CCC(Oc2ccc(-c3ccc(Cl)cc3C[C@@H](C(=O)[*:2])N(C)[*:1])cn2)CC1; X145 = CN1CCN(c2ccc(-c3ccc(F)cc3C[C@@H](C(=O)[*:2])N(C)[*:1])cc2F)CC1; X140 = CN([C@@H](Cc1cc(Cl)ccc1-c1ccc(Oc2cccnc2)cc1)C(=O)[*:2])[*:1]; X186 = CN([C@@H](Cc1cc(Cl)ccc1-c1ccc(N2CCOCC2)cn1)C(=O)[*:2])[*:1]; NMehhhLys(Me) = CN([C@@H](CCCCCCCN(C)[*:3])C(=O)[*:2])[*:1]; X132 = CN([C@@H](Cc1cc(Cl)cc2ccoc12)C(=O)[*:2])[*:1]; cBuCO(3,3-F2-1-CF3) = O=C(C1(C(F)(F)F)CC(F)(F)C1)*; X182 = N#Cc1ccc(CC[C@H](N[*:1])C(=O)[*:2])cn1; Pro(trans-4-F) = O=C(O)[C@@H]1C[C@@H](F)CN1; Gly(cPr) = N[C@H](C(=O)O)C1CC1

Legend:
[1] = target: T1, CyclinA2/CDK2 (Homo sapiens, UniProt P20248); assay: Fluorescence Polarization (FP) competitive binding assay, Cyclin A2/Cdk2; conditions: 8 nM Cyclin A2/Cdk2, 2 nM FAM probe; average of 2-3 independent experiments; read-out: Cyclin A FP IC50;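 note: plates equilibrated two hours at room temperature before polarization reading, IC50 fitted from eight-concentration compound titration curves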
T1 construct: purchased CRELUX Protein Services

[2] = system: NCI-H1048 cells; assay: MTT proliferation assay, NCI-H1048; type: cell-based; conditions: 5 days compound exposure, 1:3 serial dilution starting at 10 μM;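 note: Dose-response in 96-well plates over 8 or 10 concentration points, with exposure spanning 3-4 cell doublings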
[3] = target: T2, CyclinE1/CDK2 (Homo sapiens, UniProt P24864); assay: Fluorescence Polarization (FP) competitive binding assay, Cyclin E1/Cdk2; conditions: 10 nM Cyclin E1/Cdk2, 2 nM FAM probe; average of 2-3 independent experiments; read-out: Cyclin E FP IC50;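 note: readings taken after two-hour equilibration at room temperature in HEPES buffer with NaCl, DTT, NP-40 and BSA, IC50 fitted from eight-concentration serial dilution series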
T2 construct: purchased Eurofins, discovery 14-475

[4] = target: T3, CyclinB1/CDK1 (Homo sapiens, UniProt P14635); assay: Fluorescence Polarization (FP) competitive binding assay, Cyclin B1/Cdk1; conditions: 10 nM Cyclin B1/Cdk1, 2 nM FAM probe; average of 2-3 independent experiments; read-out: Cyclin B FP IC50;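 note: fluorescence polarization read after equilibration at room temperature, with IC50 taken from serially diluted dose-response curves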
T3 construct: purchased Eurofins, discovery 14-450

[5] = system: OVCAR3 cells; assay: MTT proliferation assay, OVCAR3; type: cell-based; conditions: 5 days compound exposure, 1:3 serial dilution starting at 10 μM;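 note: compound given as an 8- or 10-point series, one day after plating, with exposure covering roughly 3-4 cell doublings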

SMILES | IC50 [1] | GI50 [2] | IC50 [3] | IC50 [4] | GI50 [5]
CC(C)C[C@@H]1NC(=O)[C@@H](N(C)C(=O)[C@@H](NC(=O)[C@@H]2C[C@@H](F)CN2C(=O)C2(C(F)(F)F)CC(F)(F)C2)C2CC2)CCCCCCCN(C)C(=O)[C@H](Cc2cc(Cl)ccc2-c2ccc(N3CCN(CC(F)F)CC3)cc2)N(C)C1=O [Example 352] ({cBuCO(3,3-F2-1-CF3)}-[Pro(trans-4-F)][Gly(cPr)][NMehhhLys(Me)]L[X202]; lactam 3-C) | 20 nM | 10 nM | 510 nM | 20 nM | 10 nM
CC(C)C[C@@H]1NC(=O)[C@@H](N(C)C(=O)[C@@H](NC(=O)[C@@H]2C[C@@H](F)CN2C(=O)C2(C(F)(F)F)CC(F)(F)C2)C2CC2)CCCCCCCN(C)C(=O)[C@H](Cc2cc(Cl)ccc2-c2ccc(S(=O)(=O)N3CCOCC3)cc2)N(C)C1=O [Example 354] ({cBuCO(3,3-F2-1-CF3)}-[Pro(trans-4-F)][Gly(cPr)][NMehhhLys(Me)]L[X157]; lactam 3-C) | 30 nM | 10 nM | 1340 nM | 20 nM | 20 nM
CC(C)C[C@@H]1NC(=O)[C@@H](N(C)C(=O)[C@@H](NC(=O)[C@@H]2C[C@@H](F)CN2C(=O)C2(C(F)(F)F)CC(F)(F)C2)C2CC2)CCCCCCCN(C)C(=O)[C@H](Cc2cc(Cl)ccc2-c2ccc(N3CCOC(C)(C)C3)cc2)N(C)C1=O [Example 366] ({cBuCO(3,3-F2-1-CF3)}-[Pro(trans-4-F)][Gly(cPr)][NMehhhLys(Me)]L[X185]; lactam 3-C) | 20 nM | 20 nM | 1050 nM | 20 nM | 20 nM
COC[C@H]1COCCN1c1ccc(-c2ccc(Cl)cc2C[C@H]2C(=O)N(C)CCCCCCC[C@H](N(C)C(=O)[C@@H](NC(=O)[C@@H]3C[C@@H](F)CN3C(=O)C3(C(F)(F)F)CC(F)(F)C3)C3CC3)C(=O)N[C@@H](CC(C)C)C(=O)N2C)cc1 [Example 373] ({cBuCO(3,3-F2-1-CF3)}-[Pro(trans-4-F)][Gly(cPr)][NMehhhLys(Me)]L[X198]; lactam 3-C) | 20 nM | 10 nM | 480 nM | 20 nM | 10 nM
CC(C)C[C@@H]1NC(=O)[C@@H](N(C)C(=O)[C@@H](NC(=O)[C@@H]2C[C@@H](F)CN2C(=O)C2(C(F)(F)F)CC(F)(F)C2)C2CC2)CCCCCCCN(C)C(=O)[C@H](Cc2cc(Cl)ccc2-c2ccc(-c3cnn4c3COCC4)cc2)N(C)C1=O [Example 378] ({cBuCO(3,3-F2-1-CF3)}-[Pro(trans-4-F)][Gly(cPr)][NMehhhLys(Me)]L[X169]; lactam 3-C) | 20 nM | 10 nM | 1120 nM | 20 nM | 20 nM
CC(C)C[C@@H]1NC(=O)[C@@H](N(C)C(=O)[C@@H](NC(=O)[C@@H]2C[C@@H](F)CN2C(=O)C2(C(F)(F)F)CC(F)(F)C2)C2CC2)CCCCCCCN(C)C(=O)[C@H](Cc2cc(Cl)ccc2-c2ccc(N3CCOCC3)c(C#N)c2)N(C)C1=O [Example 379] ({cBuCO(3,3-F2-1-CF3)}-[Pro(trans-4-F)][Gly(cPr)][NMehhhLys(Me)]L[X179]; lactam 3-C) | 30 nM | 30 nM | 2730 nM | 20 nM | 20 nM
CC(C)C[C@@H]1NC(=O)[C@@H](N(C)C(=O)[C@@H](NC(=O)[C@@H]2C[C@@H](F)CN2C(=O)C2(C(F)(F)F)CC(F)(F)C2)C2CC2)CCCCCCCN(C)C(=O)[C@H](Cc2cc(Cl)ccc2-c2ccc(N3CCOCC3)cn2)N(C)C1=O [Example 382] ({cBuCO(3,3-F2-1-CF3)}-[Pro(trans-4-F)][Gly(cPr)][NMehhhLys(Me)]L[X186]; lactam 3-C) | 40 nM | 90 nM | 2490 nM | 20 nM | 40 nM
CC(C)C[C@@H]1NC(=O)[C@@H](N(C)C(=O)[C@@H](NC(=O)[C@@H]2C[C@@H](F)CN2C(=O)C2(C(F)(F)F)CC(F)(F)C2)C2CC2)CCCCCCCN(C)C(=O)[C@H](Cc2cc(Cl)ccc2-c2ccc(Oc3cccnc3)cc2)N(C)C1=O [Example 385] ({cBuCO(3,3-F2-1-CF3)}-[Pro(trans-4-F)][Gly(cPr)][NMehhhLys(Me)]L[X140]; lactam 3-C) | 20 nM | 30 nM | 1630 nM | 20 nM | 20 nM
CC(C)C[C@@H]1NC(=O)[C@@H](N(C)C(=O)[C@@H](NC(=O)[C@@H]2C[C@@H](F)CN2C(=O)C2(C(F)(F)F)CC(F)(F)C2)C2CC2)CCCCCCCN(C)C(=O)[C@H](Cc2cc(Cl)ccc2-c2ccc(N3CCOCC3)c(F)c2F)N(C)C1=O [Example 386] ({cBuCO(3,3-F2-1-CF3)}-[Pro(trans-4-F)][Gly(cPr)][NMehhhLys(Me)]L[X191]; lactam 3-C) | 20 nM | 30 nM | 900 nM | 20 nM | 20 nM
CC(C)C[C@@H]1NC(=O)[C@@H](N(C)C(=O)[C@@H](NC(=O)[C@@H]2C[C@@H](F)CN2C(=O)C2(C(F)(F)F)CC(F)(F)C2)C2CC2)CCCCCCCN(C)C(=O)[C@H](Cc2cc(Cl)cc3ccoc23)N(C)C1=O [Example 394] ({cBuCO(3,3-F2-1-CF3)}-[Pro(trans-4-F)][Gly(cPr)][NMehhhLys(Me)]L[X132]; lactam 3-C) | 150 nM | 90 nM | 500 nM | 20 nM | 50 nM
CC(C)C[C@@H]1NC(=O)[C@@H](N(C)C(=O)[C@@H](NC(=O)[C@@H]2C[C@@H](F)CN2C(=O)C2(C(F)(F)F)CC(F)(F)C2)C2CC2)CCCCCCCN(C)C(=O)[C@H](Cc2cc(Cl)ccc2-c2ccc(OC3CCN(C)CC3)nc2)N(C)C1=O [Example 396] ({cBuCO(3,3-F2-1-CF3)}-[Pro(trans-4-F)][Gly(cPr)][NMehhhLys(Me)]L[X212]; lactam 3-C) | 30 nM | 20 nM | 2530 nM | 20 nM | 10 nM
CC(C)C[C@@H]1NC(=O)[C@@H](N(C)C(=O)[C@@H](NC(=O)[C@@H]2C[C@@H](F)CN2C(=O)C2(C(F)(F)F)CC(F)(F)C2)C2CC2)CCCCCCCN(C)C(=O)[C@H](Cc2cc(F)ccc2-c2ccc(N3CCN(C)CC3)c(F)c2)N(C)C1=O [Example 401] ({cBuCO(3,3-F2-1-CF3)}-[Pro(trans-4-F)][Gly(cPr)][NMehhhLys(Me)]L[X145]; lactam 3-C) | 20 nM | 10 nM | 380 nM | 20 nM | 10 nM
CC(C)C[C@@H]1NC(=O)[C@@H](N(C)C(=O)[C@@H](NC(=O)[C@@H]2C[C@@H](F)CN2C(=O)C2(C(F)(F)F)CC(F)(F)C2)C2CC2)CCCCCCCN(C)C(=O)[C@H](Cc2cc(Cl)ccc2-c2ccc(N3CC(C)(F)C3)nc2)N(C)C1=O [Example 402] ({cBuCO(3,3-F2-1-CF3)}-[Pro(trans-4-F)][Gly(cPr)][NMehhhLys(Me)]L[X144]; lactam 3-C) | 20 nM | 40 nM | 960 nM | 20 nM | 10 nM
CCN1CCCCCCC[C@H](N(C)C(=O)[C@@H](NC(=O)[C@@H]2C[C@@H](F)CN2C(=O)C2(C(F)(F)F)CC(F)(F)C2)C2CC2)C(=O)N[C@@H](CC(C)C)C(=O)N(C)[C@@H](Cc2cc(Cl)ccc2-c2ccc(N3CCOCC3)cc2)C1=O [Example 404] | 20 nM | 20 nM | 1530 nM | 20 nM | 30 nM
CC(C)C[C@@H]1NC(=O)[C@@H](N(C)C(=O)[C@@H](NC(=O)[C@@H]2C[C@@H](F)CN2C(=O)C2(C(F)(F)F)CC(F)(F)C2)C2CC2)CCCCCCCN(C)C(=O)[C@H](Cc2cc(Cl)ccc2-c2ccc(N3CCO[C@H](C)C3)cc2)N(C)C1=O [Example 414] ({cBuCO(3,3-F2-1-CF3)}-[Pro(trans-4-F)][Gly(cPr)][NMehhhLys(Me)]L[X121]; lactam 3-C) | 30 nM | 10 nM | 940 nM | 20 nM | 10 nM
CC(C)C[C@@H]1NC(=O)[C@@H](N(C)C(=O)[C@H](CCc2ccc(C#N)nc2)NC(=O)[C@@H]2C[C@@H](F)CN2C(=O)C2(C(F)(F)F)CC(F)(F)C2)CCCCCCCN(C)C(=O)[C@H](Cc2cc(Cl)ccc2-c2ccc(N3CCOCC3)cc2)N(C)C1=O [Example 416] ({cBuCO(3,3-F2-1-CF3)}-[Pro(trans-4-F)][X182][NMehhhLys(Me)]L[NMePhe(2-(4-MorPh),5-Cl)]; lactam 3-C) | 40 nM | 30 nM | 3980 nM | 20 nM | 40 nM
